This note sets out measurements from US20230348376A1 (TEIJIN PHARMA LIMITED, priority 2020, published 2023).

The target in this experiment is T1, human VDR (Homo sapiens, UniProt P11473).
T1 sequence (P11473 1-427): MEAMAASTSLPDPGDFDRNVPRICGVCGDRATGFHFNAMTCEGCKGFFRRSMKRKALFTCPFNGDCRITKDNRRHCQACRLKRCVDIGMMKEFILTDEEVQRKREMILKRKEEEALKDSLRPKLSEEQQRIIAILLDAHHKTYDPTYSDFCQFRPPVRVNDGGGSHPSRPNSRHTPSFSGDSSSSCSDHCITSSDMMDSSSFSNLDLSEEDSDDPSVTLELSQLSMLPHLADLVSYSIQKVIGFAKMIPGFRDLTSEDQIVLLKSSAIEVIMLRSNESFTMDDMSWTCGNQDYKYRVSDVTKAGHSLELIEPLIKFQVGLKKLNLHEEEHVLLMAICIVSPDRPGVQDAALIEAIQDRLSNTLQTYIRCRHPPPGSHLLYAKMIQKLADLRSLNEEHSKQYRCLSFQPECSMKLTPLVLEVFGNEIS
T1 sequence (P19793 1-462 partner): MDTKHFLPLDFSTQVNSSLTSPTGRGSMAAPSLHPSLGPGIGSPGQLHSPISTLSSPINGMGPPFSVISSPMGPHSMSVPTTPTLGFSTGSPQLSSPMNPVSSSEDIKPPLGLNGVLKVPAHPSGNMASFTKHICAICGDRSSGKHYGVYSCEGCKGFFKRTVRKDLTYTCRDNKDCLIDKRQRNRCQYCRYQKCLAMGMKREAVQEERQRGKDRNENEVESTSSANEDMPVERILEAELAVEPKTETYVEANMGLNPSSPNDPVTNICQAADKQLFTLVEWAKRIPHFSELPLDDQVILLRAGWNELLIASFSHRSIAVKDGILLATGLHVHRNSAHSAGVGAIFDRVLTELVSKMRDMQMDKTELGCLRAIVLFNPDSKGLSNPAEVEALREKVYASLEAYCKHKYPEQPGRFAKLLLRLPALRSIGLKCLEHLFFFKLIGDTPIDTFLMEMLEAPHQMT
Briefly: Evaluation of VDR transcription activity in human osteoblasts (HOS cells), luciferase reporter. Particulars: Activity (EC50, VDR transcription activity), HOS cells transfected with human VDR, human RXRα and DR3 luciferase reporter; 21 hours. On the technique in general: Reporter assays use an easily measured gene product as a stand-in for the process of interest.

Compound `C=C1/C(=C\C=C2/CCC[C@]3(C)[C@@H]([C@@H](C)CN4CCC(C(F)(F)F)CC4)CC[C@@H]23)C[C@@H](O)C[C@@H]1O` [Compound C011, (1R,3S,Z)-5-(2-((1R,3aS,7aR,E)-7a-methyl-1-((R)-1-(4-(trifluoromethyl)piperidin-1-yl)propan-2-yl)octahydro-4H-inden-4-ylidene)ethylidene)-4-methylenecyclohexane-1,3-diol] showed an EC50 of 0.001 to 0.01 µM.

With `C=C1/C(=C\C=C2/CCC[C@]3(C)[C@@H]([C@H](C)CN4CCCC(C)(OC)C4)CC[C@@H]23)C[C@@H](O)C[C@@H]1O` (single isomer, unassigned) [Compound C043b], the EC50 lay in the range of 0.1 to 1 µM.

Turning to `C=C1[C@H](O)CC(=C/C=C2\CCC[C@]3(C)[C@@H]([C@H](C)CN4CCC[C@H](C(C)(F)F)C4)CC[C@@H]23)C[C@H]1O` [Compound C053, (1R,3R)-5-(2-((1R,3aS,7aR,E)-1-((S)-1-((S)-3-(1,1-difluoroethyl)piperidin-1-yl)propan-2-yl)-7a-methyloctahydro-4H-inden-4-ylidene)ethylidene)-2-methylenecyclohexane-1,3-diol], the concentration for a half-maximal effect (EC50) was in the range of 0.001 to 0.01 µM.

On to `COC1(C(F)(F)F)CN(C[C@@H](C)[C@H]2CC[C@H]3/C(=C/C=C4C[C@@H](O)C[C@H](O)C4)CCC[C@]23C)C1` [Compound A012, (1R,3R)-5-(2-((1R,3aS,7aR,E)-1-((S)-1-(3-methoxy-3-trifluoromethylazetidin-1-yl)propan-2-yl)-7a-methyloctahydro-4H-inden-4-ylidene)ethylidene)cyclohexane-1,3-diol], for which the concentration for a half-maximal effect (EC50) fell in the range of 0.01 to 0.1 µM.

`C=C1/C(=C\C=C2/CCC[C@]3(C)[C@@H](C(C)CN4CC(F)C4)CC[C@@H]23)C[C@@H](O)C[C@@H]1O` (stereo in doubt) [Compound A001, (1R,3S,Z)-5-(2-((1R,3aS,7aR,E)-1-((R)-1-(3-fluoroazetidin-1-yl)propan-2-yl)-7a-methyloctahydro-4H-inden-4-ylidene)ethylidene)-4-methylenecyclohexane-1,3-diol]: the half-maximal effective concentration (EC50) fell in the range of 0.1 to 1 µM.

Compound `C=C1/C(=C\C=C2/CCC[C@]3(C)[C@@H]([C@@H](C)CN4CC[C@H](C(F)F)C4)CC[C@@H]23)C[C@@H](O)C[C@@H]1O` [Compound B095, (1R,3S,Z)-5-(2-((1R,3aS,7aR,E)-1-((R)-1-((S)-3-(difluoromethyl)pyrrolidin-1-yl)propan-2-yl)-7a-methyloctahydro-4H-inden-4-ylidene)ethylidene)-4-methylenecyclohexane-1,3-diol] registered an EC50 of 0.1 to 1 µM.

Take `C[C@H](CN1CC[C@H](OC(F)(F)F)C1)[C@H]1CC[C@H]2/C(=C/C=C3CC(O)C[C@H](O)C3)CCC[C@]12C` (stereo in doubt) [Compound B069, (1R,3S)-5-(2-((1R,3aS,7aR,E)-7a-methyl-1-((S)-1-((S)-3-(trifluoromethoxy)pyrrolidin-1-yl)propan-2-yl)octahydro-4H-inden-4-ylidene)ethylidene)cyclohexane-1,3-diol]: the 50% effective concentration (EC50) fell in the range of 0.01 to 0.1 µM.

For `C=C1[C@H](O)CC(=C/C=C2\CCC[C@]3(C)[C@@H]([C@H](C)CCN4CC[C@@H](CC(F)F)C4)CC[C@@H]23)C[C@H]1O` [Compound B092, (1R,3R)-5-(2-((1R,3aS,7aR,E)-1-((R)-4-((S)-3-(2,2-difluoroethyl)pyrrolidin-1-yl)butan-2-yl)-7a-methyloctahydro-4H-inden-4-ylidene)ethylidene)-2-methylenecyclohexane-1,3-diol], the EC50 fell in the range of 0.01 to 0.1 µM.

The compound `C=C1/C(=C\C=C2/CCC[C@]3(C)[C@@H]([C@@H](C)CN4CCCC4)CC[C@@H]23)C[C@@H](O)C[C@@H]1O` [Compound B009, (1R,3S,Z)-5-(2-((1R,3aS,7aR,E)-7a-methyl-1-((R)-1-(pyrrolidin-1-yl)propan-2-yl)octahydro-4H-inden-4-ylidene)ethylidene)-4-methylenecyclohexane-1,3-diol] yielded a concentration for a half-maximal effect (EC50) of 0.1 to 1 µM.

Consider `C[C@H](CN1CC[C@H](C(C)(F)F)C1)[C@H]1CC[C@H]2/C(=C/C=C3C[C@@H](O)C[C@H](O)C3)CCC[C@]12C` [Compound B030, (1R,3R)-5-(2-((1R,3aS,7aR,E)-1-((S)-1-((S)-3-(1,1-difluoroethyl)pyrrolidin-1-yl)propan-2-yl)-7a-methyloctahydro-4H-inden-4-ylidene)ethylidene)cyclohexane-1,3-diol], for which the EC50 lay within 0.01 to 0.1 µM.

On to `C=C1/C(=C\C=C2/CCC[C@]3(C)[C@@H]([C@H](C)CN4CCCC(O)(C(F)(F)F)C4)CC[C@@H]23)C[C@@H](O)[C@H](C)[C@@H]1O` (single isomer, unassigned) [Compound C031a], for which the EC50 was less than 0.001 µM.

The compound `C=C1C(O)CC(=C/C=C2\CCC[C@]3(C)[C@@H]([C@H](C)CCN4CCOC5(CC5)C4)CC[C@@H]23)C[C@H]1O` (stereo in doubt) [Compound D026, (1R,3S)-5-(2-((1R,3aS,7aR,E)-1-((R)-4-(4-oxa-7-azaspiro[2.5]octan-7-yl)butan-2-yl)-7a-methyloctahydro-4H-inden-4-ylidene)ethylidene)-2-methylenecyclohexane-1,3-diol] had an EC50 of 0.001 to 0.01 µM.

`C=C1/C(=C\C=C2/CCC[C@]3(C)[C@@H]([C@H](C)CN4CC[C@H](OCC(F)F)C4)CC[C@@H]23)C[C@@H](O)C[C@@H]1O` [Compound B053, (1R,3S,Z)-5-(2-((1R,3aS,7aR,E)-1-((S)-1-((S)-3-(2,2-difluoroethoxy)pyrrolidin-1-yl)propan-2-yl)-7a-methyloctahydro-4H-inden-4-ylidene)ethylidene)-4-methylenecyclohexane-1,3-diol] displayed an EC50 of 0.01 to 0.1 µM.

In turn, `C[C@H](CCN1CC[C@@H](F)C1)[C@H]1CC[C@H]2/C(=C/C=C3C[C@@H](O)C[C@H](O)C3)CCC[C@]12C` [Compound B015, (1R,3R)-5-(2-((1R,3aS,7aR,E)-1-((R)-4-((R)-3-fluoropyrrolidin-1-yl)butan-2-yl)-7a-methyloctahydro-4H-inden-4-ylidene)ethylidene)cyclohexane-1,3-diol] yielded an EC50 of 0.01 to 0.1 µM.

The compound `C=C1[C@H](O)CC(=C/C=C2\CCC[C@]3(C)[C@@H]([C@H](C)CN4CCC[C@H](C(F)F)C4)CC[C@@H]23)C[C@H]1O` [Compound C049, (1R,3R)-5-(2-((1R,3aS,7aR,E)-1-((S)-1-((S)-3-(difluoromethyl)piperidin-1-yl)propan-2-yl)-7a-methyloctahydro-4H-inden-4-ylidene)ethylidene)-2-methylenecyclohexane-1,3-diol] had an EC50 of 0.001 to 0.01 µM.

The compound `C=C1[C@H](O)CC(=C/C=C2\CCC[C@]3(C)[C@@H]([C@H](C)CN4CCCC(O)(CC)C4)CC[C@@H]23)C[C@H]1O` (single isomer, unassigned) [Compound C046a] registered an EC50 of less than 0.001 µM.

The compound `C=C1/C(=C\C=C2/CCC[C@]3(C)[C@@H]([C@H](C)CN4CC[C@@](C)(O)C4)CC[C@@H]23)C[C@@H](O)C[C@@H]1O` [Compound B074, (1R,3S,Z)-5-(2-((1R,3aS,7aR,E)-1-((S)-1-((R)-3-hydroxy-3-methylpyrrolidin-1-yl)propan-2-yl)-7a-methyloctahydro-4H-inden-4-ylidene)ethylidene)-4-methylenecyclohexane-1,3-diol] gave a 50% effective concentration (EC50) of 0.1 to 1 µM.

Compound `C=C1[C@H](O)CC(=C/C=C2\CCC[C@]3(C)[C@@H]([C@H](C)CCN4CCO[C@H](C(F)F)C4)CC[C@@H]23)C[C@H]1O` [Compound D033, (1R,3R)-5-(2-((1R,3aS,7aR,E)-1-((R)-4-((S)-2-(difluoromethyl)morpholino)butan-2-yl)-7a-methyloctahydro-4H-inden-4-ylidene)ethylidene)-2-methylenecyclohexane-1,3-diol] registered an EC50 of 0.001 to 0.01 µM.

`C=C1/C(=C\C=C2/CCC[C@]3(C)[C@@H]([C@H](C)CCN4CCOCC4)CC[C@@H]23)C[C@@H](O)C[C@@H]1O` [Compound D022, (1R,3S,Z)-5-(2-((1R,3aS,7aR,E)-7a-methyl-1-((R)-4-morpholinobutan-2-yl)octahydro-4H-inden-4-ylidene)ethylidene)-4-methylenecyclohexane-1,3-diol]: the EC50 fell in the range of 0.01 to 0.1 µM.

`C=C1/C(=C\C=C2/CCC[C@]3(C)[C@@H]([C@H](C)CN4CC[C@H](CC(F)F)C4)CC[C@@H]23)C[C@@H](O)[C@H](C)[C@@H]1O` [Compound B038, (1R,2S,3S,Z)-5-(2-((1R,3aS,7aR,E)-1-((S)-1-((R)-3-(2,2-difluoroethyl)pyrrolidin-1-yl)propan-2-yl)-7a-methyloctahydro-4H-inden-4-ylidene)ethylidene)-2-methyl-4-methylenecyclohexane-1,3-diol] came in with a concentration for a half-maximal effect (EC50) of 0.01 to 0.1 µM.

A word on the EC50: it is the concentration at which the effect is half-maximal. Low readings indicate an effect from little substance, high ones a need for much substance.
